# Measured values as given in patent publication US6756045B1, “Topically applied idebenone-containing agent with protective and regenerative effect” (priority 1999, dated 2004).
# Columns and labels:
# [1] = tested on: macrophage LDL oxidation systems; assay: macrophage LDL oxidation system, lipid hydroperoxides by HPLC chemiluminescence; assay type: cell-based; settings: for antioxidative effect in combination with tocopherol: combined with tocopherol, in the course of time, after 24 hours
# Text: In separate pre-tests, idebenone was used in the macrophage LDL oxidation systems as anti-oxidant by way of comparison to alpha-tocopherol, ascorbic acid, coenzyme Q-10 and glutathione. This system is suitable for the simulation of cell-promoted oxidation of lipids induced by lipoxygenase, such as for example occurs due to UV radiation. To determine the antioxidative effect of the individual substances, the amount of primary degradation products of lipid peroxidation, the lipid hydroperoxides, occurring in the course of time after 8 or 24 hours was determined by means of an HPLC chemiluminescence method (E. Wieland et al., Fresenius J. Anal. Chem., 343, 62-63 (1992)). […] The values given in the following tables relate to nmoles of measured lipid hydroperoxides per mg of LDL protein.
# [2] = oral administration; cited from earlier work
# [3] = tested on: tissue; settings: in the tissue under pro-oxidative conditions; cited from earlier work
# [4] = oxidation system A (Mk + LDL), 50 μmoles/litre antioxidant, 8 hours
# [5] = oxidation system A (Mk + LDL), 50 μmoles/litre antioxidant, 24 hours
# [6] = oxidation system B (Mk + LDL + 100 μmoles/liter α-tocopherol), 50 μmoles/litre further antioxidant, 8 hours
# [7] = oxidation system B (Mk + LDL + 100 μmoles/liter α-tocopherol), 50 μmoles/litre further antioxidant, 24 hours
# [8] = oxidation system A (Mk + LDL), 10 μmoles/litre antioxidant, 8 hours
# [9] = oxidation system A (Mk + LDL), 10 μmoles/litre antioxidant, 24 hours
# [10] = oxidation system B (Mk + LDL + 100 μmoles/liter α-tocopherol), 10 μmoles/litre further antioxidant, 8 hours
# [11] = oxidation system B (Mk + LDL + 100 μmoles/liter α-tocopherol), 10 μmoles/litre further antioxidant, 24 hours
SMILES,antioxidative effect in combination with tocopherol [1],"lipid hydroperoxides [1, 4]","lipid hydroperoxides [1, 5]","lipid hydroperoxides [1, 6]","lipid hydroperoxides [1, 7]","lipid hydroperoxides [1, 8]","lipid hydroperoxides [1, 9]","lipid hydroperoxides [1, 10]","lipid hydroperoxides [1, 11]",other results
O=C1O[C@H]([C@@H](O)CO)C(O)=C1O [ascorbic acid],significantly lower antioxidative effect,0 nmoles per mg of LDL protein,1.7 nmoles per mg of LDL protein,1.7 nmoles per mg of LDL protein,25.3 nmoles per mg of LDL protein,,,,,
COC1=C(OC)C(=O)C(C/C=C(\C)CC/C=C(\C)CC/C=C(\C)CC/C=C(\C)CC/C=C(\C)CC/C=C(\C)CC/C=C(\C)CC/C=C(\C)CC/C=C(\C)CCC=C(C)C)=C(C)C1=O [coenzyme Q-10],,,,,,69 nmoles per mg of LDL protein,115.8 nmoles per mg of LDL protein,26.8 nmoles per mg of LDL protein,143.7 nmoles per mg of LDL protein,
N[C@@H](CCC(=O)N[C@@H](CS)C(=O)NCC(=O)O)C(=O)O [glutathione],,51.7 nmoles per mg of LDL protein,119.0 nmoles per mg of LDL protein,23.3 nmoles per mg of LDL protein,129.8 nmoles per mg of LDL protein,,,,,
"COC1=C(OC)C(=O)C(CCCCCCCCCCO)=C(C)C1=O [idebenone, 6-(10-hydroxydecyl)-2,3-dimethoxy-5-methyl-1,4-benzoquinone]",reliably intercept the pro-oxidative effect of tocopherol oxidation products,,,,,0 nmoles per mg of LDL protein,0 nmoles per mg of LDL protein,1.9 nmoles per mg of LDL protein,2.6 nmoles per mg of LDL protein,"toxic effects [2]: no toxic effects; antioxidative effect compared to ascorbic acid, alpha-tocopherol and glutathione ([1]; idebenone 10 μmoles/liter vs ascorbic acid 50, alpha-tocopherol 100, glutathione 50 μmoles/liter): clearly stronger antioxidative effect; protection against loss of alpha-tocopherol and coenzyme Q-10 [3]: protection against the loss of alpha-tocopherol and coenzyme Q-10"
"Cc1c(C)c2c(c(C)c1O)CC[C@@](C)(CCC[C@H](C)CCC[C@H](C)CCCC(C)C)O2 [α-tocopherol, alpha-tocopherol]",,,,,,,,,,"lipid hydroperoxides ([1]; oxidation system A (Mk + LDL), 100 μmoles/litre antioxidant, 8 hours): 32.8 nmoles per mg of LDL protein; lipid hydroperoxides ([1]; oxidation system A (Mk + LDL), 100 μmoles/litre antioxidant, 24 hours): 198.0 nmoles per mg of LDL protein"
